Results taken from US12421238B2, “Selective dihydropyrrolopyrimidine JAK2 inhibitors” (CHENGDU JINRUI FOUNDATION BIOTECH CO., LTD., priority 2019, dated 2025).

tested on: HEL92.1.7; assay: HEL92.1.7 cell proliferation experiment (Cell Titer-Glo); assay type: cell-based; conditions: Homo sapiens, HEL 92.1.7; HEL92.1.7 cells, 72 hours

SMILES	IC50 [µM]
CN1CCN(c2ccc(Nc3ncc4c(n3)N(c3cccc(S(=O)(=O)NC(C)(C)C)c3)CC4)cc2)CC1 [Compound I-15]	0.17
CC(C)(C)NS(=O)(=O)c1cccc(N2CCc3cnc(Nc4ccc(OCCN5CCCCC5)cc4)nc32)c1 [Compound I-5]	0.18
Cc1cnc(Nc2ccc(OCCN3CCCC3)cc2)nc1Nc1cccc(S(=O)(=O)NC(C)(C)C)c1 [Fedratinib, reference compound]	0.58
CC(C)(C)NS(=O)(=O)c1cccc(N2CCc3cnc(Nc4ccc(CN5CCSCC5)cc4)nc32)c1 [Compound I-13]	0.31
CC(C)(C)NS(=O)(=O)c1cccc(N2CCc3cnc(Nc4ccc(OC5CCNCC5)cc4)nc32)c1 [Compound I-19]	0.21

tested on: TF-1; assay: TF-1 cell proliferation experiment (CellTiter Glo); assay type: cell-based; conditions: Homo sapiens; TF-1 cells, 72 hours; read-out: TF-1 (μM), proliferation inhibition

SMILES	IC50 [µM]
CN1CCN(c2ccc(Nc3ncc4c(n3)N(c3cccc(S(=O)(=O)NC(C)(C)C)c3)CC4)cc2)CC1 [Compound I-15]	0.12
CC(C)(C)NS(=O)(=O)c1cccc(N2CCc3cnc(Nc4ccc(OCCN5CCCCC5)cc4)nc32)c1 [Compound I-5]	0.22
Cc1cnc(Nc2ccc(OCCN3CCCC3)cc2)nc1Nc1cccc(S(=O)(=O)NC(C)(C)C)c1 [Fedratinib, reference compound]	1.57
CC(C)(C)NS(=O)(=O)c1cccc(N2CCc3cnc(Nc4ccc(CN5CCSCC5)cc4)nc32)c1 [Compound I-13]	0.27
CC(C)(C)NS(=O)(=O)c1cccc(N2CCc3cnc(Nc4ccc(OC5CCNCC5)cc4)nc32)c1 [Compound I-19]	0.17

tested on: not listed separately; assay: Pharmacokinetic test in SD rats, intragastric administration; assay type: in vivo; conditions: rat, po, single intragastric administration, 25 mg/kg, plasma, read-out: Blood concentration Cmax
Procedure: SD rats were used as the test animals.
Standard curve and preparation and processing of quality control samples:
Stock solution was diluted with 50% acetonitrile/water solution to obtain standard working solutions of 0.04, 0.10, 0.20, 0.40, 1.00, 2.00, 4.00 μg/mL, and quality control working solutions of 0.10, 1.00, 3.00 μg/mL. 2.50 μL of standard curve working solutions and quality control working solutions were added to 47.5 μL of blank rat plasma, respectively, to obtain standard curve solutions having analyte concentrations of 2.00, 5.00, 10.00, 20.00, 50.00, 100.00, 200.00 ng/mL and quality control samples having concentrations of 5.00, 50.00, and 150.00 ng/mL. 200 μL of acetonitrile (containing 5 ng/mL of the internal standard loratadine) was added. After vortexing for 3 minutes, the solutions were centrifuged at 15000 rpm at 4° C. for 15 minutes. 100 μL of the supernatant was taken for LC-MS/MS analysis. WinNonlin® 8.0 was used to calculate the experimental results.

SMILES	Cmax [ng/mL]
CN1CCN(c2ccc(Nc3ncc4c(n3)N(c3cccc(S(=O)(=O)NC(C)(C)C)c3)CC4)cc2)CC1 [Compound I-15]	1240
CC(C)(C)NS(=O)(=O)c1cccc(N2CCc3cnc(Nc4ccc(OCCN5CCCCC5)cc4)nc32)c1 [Compound I-5]	1120
Cc1cnc(Nc2ccc(OCCN3CCCC3)cc2)nc1Nc1cccc(S(=O)(=O)NC(C)(C)C)c1 [Fedratinib, reference compound]	579
CC(C)(C)NS(=O)(=O)c1cccc(N2CCc3cnc(Nc4ccc(CN5CCSCC5)cc4)nc32)c1 [Compound I-13]	979
CC(C)(C)NS(=O)(=O)c1cccc(N2CCc3cnc(Nc4ccc(OC5CCNCC5)cc4)nc32)c1 [Compound I-19]	1120

same assay, conditions: rat, po, single intragastric administration, 25 mg/kg, plasma, read-out: Curve area AUClast

SMILES	AUC(0-t) [ng·h/mL]
CN1CCN(c2ccc(Nc3ncc4c(n3)N(c3cccc(S(=O)(=O)NC(C)(C)C)c3)CC4)cc2)CC1 [Compound I-15]	934
CC(C)(C)NS(=O)(=O)c1cccc(N2CCc3cnc(Nc4ccc(OCCN5CCCCC5)cc4)nc32)c1 [Compound I-5]	812
Cc1cnc(Nc2ccc(OCCN3CCCC3)cc2)nc1Nc1cccc(S(=O)(=O)NC(C)(C)C)c1 [Fedratinib, reference compound]	559
CC(C)(C)NS(=O)(=O)c1cccc(N2CCc3cnc(Nc4ccc(CN5CCSCC5)cc4)nc32)c1 [Compound I-13]	955
CC(C)(C)NS(=O)(=O)c1cccc(N2CCc3cnc(Nc4ccc(OC5CCNCC5)cc4)nc32)c1 [Compound I-19]	935

same assay, conditions: rat, po, single intragastric administration, 25 mg/kg, plasma, read-out: Half life t1/2 (converted)

SMILES	half-life [h]
CN1CCN(c2ccc(Nc3ncc4c(n3)N(c3cccc(S(=O)(=O)NC(C)(C)C)c3)CC4)cc2)CC1 [Compound I-15]	6.8
CC(C)(C)NS(=O)(=O)c1cccc(N2CCc3cnc(Nc4ccc(OCCN5CCCCC5)cc4)nc32)c1 [Compound I-5]	6.1
Cc1cnc(Nc2ccc(OCCN3CCCC3)cc2)nc1Nc1cccc(S(=O)(=O)NC(C)(C)C)c1 [Fedratinib, reference compound]	4
CC(C)(C)NS(=O)(=O)c1cccc(N2CCc3cnc(Nc4ccc(CN5CCSCC5)cc4)nc32)c1 [Compound I-13]	5.5
CC(C)(C)NS(=O)(=O)c1cccc(N2CCc3cnc(Nc4ccc(OC5CCNCC5)cc4)nc32)c1 [Compound I-19]	6.2

same assay, conditions: rat, po, single intragastric administration, 25 mg/kg, plasma, read-out: Time to peak Tmax

SMILES	Tmax [h]
CN1CCN(c2ccc(Nc3ncc4c(n3)N(c3cccc(S(=O)(=O)NC(C)(C)C)c3)CC4)cc2)CC1 [Compound I-15]	1.5
CC(C)(C)NS(=O)(=O)c1cccc(N2CCc3cnc(Nc4ccc(OCCN5CCCCC5)cc4)nc32)c1 [Compound I-5]	1.5
Cc1cnc(Nc2ccc(OCCN3CCCC3)cc2)nc1Nc1cccc(S(=O)(=O)NC(C)(C)C)c1 [Fedratinib, reference compound]	1.5
CC(C)(C)NS(=O)(=O)c1cccc(N2CCc3cnc(Nc4ccc(CN5CCSCC5)cc4)nc32)c1 [Compound I-13]	2
CC(C)(C)NS(=O)(=O)c1cccc(N2CCc3cnc(Nc4ccc(OC5CCNCC5)cc4)nc32)c1 [Compound I-19]	1.5

tested on: not listed separately; assay: Acute toxicity test, single oral administration to ICR mice (MTD); assay type: in vivo; conditions: ICR, mouse, in vivo, po, read-out: MTD (maximum tolerated dose)

SMILES	MTD at 6 days [mg/kg]
CN1CCN(c2ccc(Nc3ncc4c(n3)N(c3cccc(S(=O)(=O)NC(C)(C)C)c3)CC4)cc2)CC1 [Compound I-15]	> 2000
Cc1cnc(Nc2ccc(OCCN3CCCC3)cc2)nc1Nc1cccc(S(=O)(=O)NC(C)(C)C)c1 [Fedratinib, reference compound]	250
CC(C)(C)NS(=O)(=O)c1cccc(N2CCc3cnc(Nc4ccc(CN5CCSCC5)cc4)nc32)c1 [Compound I-13]	≥ 1000
CC(C)(C)NS(=O)(=O)c1cccc(N2CCc3cnc(Nc4ccc(OC5CCNCC5)cc4)nc32)c1 [Compound I-19]	≥ 1000

tested on: ICR mice; assay: as above; assay type: in vivo; conditions: not given

SMILES	MTD (maximum tolerated dose) [mg/kg]
CN1CCN(c2ccc(Nc3ncc4c(n3)N(c3cccc(S(=O)(=O)NC(C)(C)C)c3)CC4)cc2)CC1 [Compound I-15]	>2000
CC(C)(C)NS(=O)(=O)c1cccc(N2CCc3cnc(Nc4ccc(OC5CCNCC5)cc4)nc32)c1 [Compound I-19]	1500

target: JAK1 (Homo sapiens, UniProt P23458); assay: Kinase activity test on JAK1 (Caliper EZ Reader conversion rate); conditions: not given
Sequence (P23458 whole entry): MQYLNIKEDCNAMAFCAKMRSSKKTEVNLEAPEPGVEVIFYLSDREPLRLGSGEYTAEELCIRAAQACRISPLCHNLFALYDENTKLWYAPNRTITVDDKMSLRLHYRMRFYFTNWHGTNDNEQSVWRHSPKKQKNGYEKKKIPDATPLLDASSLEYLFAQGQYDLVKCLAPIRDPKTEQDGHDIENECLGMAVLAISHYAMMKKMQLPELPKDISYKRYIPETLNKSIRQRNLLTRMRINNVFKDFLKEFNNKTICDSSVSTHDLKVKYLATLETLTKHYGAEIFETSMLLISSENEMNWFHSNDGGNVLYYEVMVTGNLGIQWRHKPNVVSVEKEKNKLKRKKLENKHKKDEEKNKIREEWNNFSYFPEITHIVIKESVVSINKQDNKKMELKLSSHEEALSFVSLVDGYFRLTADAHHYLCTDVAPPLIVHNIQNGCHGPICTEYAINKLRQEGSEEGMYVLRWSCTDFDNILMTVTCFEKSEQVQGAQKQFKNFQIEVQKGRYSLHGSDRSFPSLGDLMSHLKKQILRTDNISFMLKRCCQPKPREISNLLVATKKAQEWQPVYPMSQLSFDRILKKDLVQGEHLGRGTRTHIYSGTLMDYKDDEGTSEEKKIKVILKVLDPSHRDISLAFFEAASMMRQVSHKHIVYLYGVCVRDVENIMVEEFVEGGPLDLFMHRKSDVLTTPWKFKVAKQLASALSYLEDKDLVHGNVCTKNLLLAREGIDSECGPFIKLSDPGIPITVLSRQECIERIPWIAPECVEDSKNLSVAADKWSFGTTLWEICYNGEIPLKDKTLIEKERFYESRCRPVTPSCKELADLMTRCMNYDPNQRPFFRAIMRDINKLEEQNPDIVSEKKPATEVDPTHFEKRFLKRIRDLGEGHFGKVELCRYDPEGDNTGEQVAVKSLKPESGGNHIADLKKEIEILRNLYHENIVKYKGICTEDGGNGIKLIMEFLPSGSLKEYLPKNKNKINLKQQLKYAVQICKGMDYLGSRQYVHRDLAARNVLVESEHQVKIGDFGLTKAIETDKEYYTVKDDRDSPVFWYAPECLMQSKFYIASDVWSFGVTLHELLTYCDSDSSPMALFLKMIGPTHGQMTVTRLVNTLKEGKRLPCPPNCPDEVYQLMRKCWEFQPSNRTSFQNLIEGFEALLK

SMILES	IC50 [nM]
CN1CCN(c2ccc(Nc3ncc4c(n3)N(c3cccc(S(=O)(=O)NC(C)(C)C)c3)CC4)cc2)CC1 [Compound I-15]	72
CC(C)(C)NS(=O)(=O)c1cccc(N2CCc3cnc(Nc4ccc(OCCN5CCCCC5)cc4)nc32)c1 [Compound I-5]	99
CC(C)(C)NS(=O)(=O)c1cccc(N2CCc3cnc(Nc4ccc(CN5CCSCC5)cc4)nc32)c1 [Compound I-13]	89
CC(C)(C)NS(=O)(=O)c1cccc(N2CCc3cnc(Nc4ccc(OC5CCNCC5)cc4)nc32)c1 [Compound I-19]	121

target: JAK2 (Homo sapiens, UniProt O60674); assay: Kinase activity test on JAK2 (Caliper EZ Reader conversion rate); conditions: not given
Sequence (O60674 whole entry): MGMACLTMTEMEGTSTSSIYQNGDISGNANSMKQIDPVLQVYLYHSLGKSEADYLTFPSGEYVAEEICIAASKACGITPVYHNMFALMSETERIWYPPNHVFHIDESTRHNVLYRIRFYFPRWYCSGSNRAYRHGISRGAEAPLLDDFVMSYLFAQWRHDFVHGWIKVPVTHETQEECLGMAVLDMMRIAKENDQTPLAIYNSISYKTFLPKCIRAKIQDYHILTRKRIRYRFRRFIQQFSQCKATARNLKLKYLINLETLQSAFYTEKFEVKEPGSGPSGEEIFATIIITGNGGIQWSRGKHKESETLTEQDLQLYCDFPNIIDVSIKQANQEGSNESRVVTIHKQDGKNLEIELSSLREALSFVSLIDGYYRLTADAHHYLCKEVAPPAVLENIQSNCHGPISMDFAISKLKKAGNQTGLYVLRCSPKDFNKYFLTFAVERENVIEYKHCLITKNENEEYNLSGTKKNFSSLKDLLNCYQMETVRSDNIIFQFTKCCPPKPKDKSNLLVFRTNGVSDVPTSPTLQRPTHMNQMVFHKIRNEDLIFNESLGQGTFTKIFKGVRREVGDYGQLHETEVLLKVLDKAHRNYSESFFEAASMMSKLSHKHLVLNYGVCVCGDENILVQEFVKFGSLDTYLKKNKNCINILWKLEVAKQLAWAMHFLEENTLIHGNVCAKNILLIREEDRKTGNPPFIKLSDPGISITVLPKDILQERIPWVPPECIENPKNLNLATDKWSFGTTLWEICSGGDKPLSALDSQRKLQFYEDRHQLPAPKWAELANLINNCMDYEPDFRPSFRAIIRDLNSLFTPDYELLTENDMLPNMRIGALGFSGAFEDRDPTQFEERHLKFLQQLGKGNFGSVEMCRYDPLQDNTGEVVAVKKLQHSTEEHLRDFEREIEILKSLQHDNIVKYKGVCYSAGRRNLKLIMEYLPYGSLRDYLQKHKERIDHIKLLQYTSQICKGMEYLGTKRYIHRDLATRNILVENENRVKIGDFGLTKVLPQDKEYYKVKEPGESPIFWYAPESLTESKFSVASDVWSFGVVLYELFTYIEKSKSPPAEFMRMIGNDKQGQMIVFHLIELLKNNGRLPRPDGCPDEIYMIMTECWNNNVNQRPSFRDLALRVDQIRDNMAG

SMILES	IC50 [nM]
CN1CCN(c2ccc(Nc3ncc4c(n3)N(c3cccc(S(=O)(=O)NC(C)(C)C)c3)CC4)cc2)CC1 [Compound I-15]	0.73
CC(C)(C)NS(=O)(=O)c1cccc(N2CCc3cnc(Nc4ccc(OCCN5CCCCC5)cc4)nc32)c1 [Compound I-5]	1.1
CC(C)(C)NS(=O)(=O)c1cccc(N2CCc3cnc(Nc4ccc(CN5CCSCC5)cc4)nc32)c1 [Compound I-13]	1
CC(C)(C)NS(=O)(=O)c1cccc(N2CCc3cnc(Nc4ccc(OC5CCNCC5)cc4)nc32)c1 [Compound I-19]	0.9

same assay, conditions: ratio of IC50 values, selectivity for JAK2 over JAK1

SMILES	JAK1/JAK2
CN1CCN(c2ccc(Nc3ncc4c(n3)N(c3cccc(S(=O)(=O)NC(C)(C)C)c3)CC4)cc2)CC1 [Compound I-15]	99
CC(C)(C)NS(=O)(=O)c1cccc(N2CCc3cnc(Nc4ccc(OCCN5CCCCC5)cc4)nc32)c1 [Compound I-5]	90
CC(C)(C)NS(=O)(=O)c1cccc(N2CCc3cnc(Nc4ccc(CN5CCSCC5)cc4)nc32)c1 [Compound I-13]	89
CC(C)(C)NS(=O)(=O)c1cccc(N2CCc3cnc(Nc4ccc(OC5CCNCC5)cc4)nc32)c1 [Compound I-19]	134

same assay, conditions: ratio of IC50 values, selectivity for JAK2 over JAK3

SMILES	JAK3/JAK2
CN1CCN(c2ccc(Nc3ncc4c(n3)N(c3cccc(S(=O)(=O)NC(C)(C)C)c3)CC4)cc2)CC1 [Compound I-15]	819
CC(C)(C)NS(=O)(=O)c1cccc(N2CCc3cnc(Nc4ccc(OCCN5CCCCC5)cc4)nc32)c1 [Compound I-5]	1118
CC(C)(C)NS(=O)(=O)c1cccc(N2CCc3cnc(Nc4ccc(CN5CCSCC5)cc4)nc32)c1 [Compound I-13]	865
CC(C)(C)NS(=O)(=O)c1cccc(N2CCc3cnc(Nc4ccc(OC5CCNCC5)cc4)nc32)c1 [Compound I-19]	1689

target: T1, JAK3 (Homo sapiens, UniProt P52333); assay: Kinase activity test on JAK3 (Caliper EZ Reader conversion rate); conditions: not given
T1 sequence (P52333 1-1124): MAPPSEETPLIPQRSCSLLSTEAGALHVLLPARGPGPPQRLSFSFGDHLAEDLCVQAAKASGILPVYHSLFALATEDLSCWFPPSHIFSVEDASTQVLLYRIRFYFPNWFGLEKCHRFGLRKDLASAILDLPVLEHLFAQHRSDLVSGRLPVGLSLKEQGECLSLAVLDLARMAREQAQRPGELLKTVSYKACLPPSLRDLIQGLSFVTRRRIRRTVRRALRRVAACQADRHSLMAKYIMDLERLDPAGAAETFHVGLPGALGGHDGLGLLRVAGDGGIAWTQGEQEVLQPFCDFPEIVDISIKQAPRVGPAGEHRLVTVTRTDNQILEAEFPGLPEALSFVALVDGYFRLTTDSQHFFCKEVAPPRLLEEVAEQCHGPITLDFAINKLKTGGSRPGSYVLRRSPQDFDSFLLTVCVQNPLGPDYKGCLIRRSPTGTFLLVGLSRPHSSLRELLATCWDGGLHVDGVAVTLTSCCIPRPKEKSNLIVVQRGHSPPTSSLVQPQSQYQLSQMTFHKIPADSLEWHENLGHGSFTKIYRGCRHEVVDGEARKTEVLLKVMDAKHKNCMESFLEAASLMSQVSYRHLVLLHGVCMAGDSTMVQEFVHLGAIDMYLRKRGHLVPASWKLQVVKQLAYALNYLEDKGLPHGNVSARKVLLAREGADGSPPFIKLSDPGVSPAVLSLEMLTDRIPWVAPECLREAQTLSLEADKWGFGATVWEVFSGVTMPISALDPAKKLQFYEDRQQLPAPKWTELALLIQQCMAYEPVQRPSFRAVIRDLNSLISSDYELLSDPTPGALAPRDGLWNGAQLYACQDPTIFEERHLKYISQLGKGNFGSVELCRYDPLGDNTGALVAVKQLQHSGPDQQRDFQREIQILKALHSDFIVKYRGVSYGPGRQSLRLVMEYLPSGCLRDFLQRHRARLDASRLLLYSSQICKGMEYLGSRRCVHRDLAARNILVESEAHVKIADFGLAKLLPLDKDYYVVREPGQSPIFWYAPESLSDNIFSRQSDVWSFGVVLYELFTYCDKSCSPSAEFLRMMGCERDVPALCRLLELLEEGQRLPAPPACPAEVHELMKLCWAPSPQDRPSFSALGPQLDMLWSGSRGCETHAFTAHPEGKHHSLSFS

SMILES	IC50 [nM]
CN1CCN(c2ccc(Nc3ncc4c(n3)N(c3cccc(S(=O)(=O)NC(C)(C)C)c3)CC4)cc2)CC1 [Compound I-15]	598
CC(C)(C)NS(=O)(=O)c1cccc(N2CCc3cnc(Nc4ccc(OCCN5CCCCC5)cc4)nc32)c1 [Compound I-5]	1230
CC(C)(C)NS(=O)(=O)c1cccc(N2CCc3cnc(Nc4ccc(CN5CCSCC5)cc4)nc32)c1 [Compound I-13]	865
CC(C)(C)NS(=O)(=O)c1cccc(N2CCc3cnc(Nc4ccc(OC5CCNCC5)cc4)nc32)c1 [Compound I-19]	1520
